Here are results for eleven compounds from patent publication US11793782B2, “Therapeutic agents for neurodegenerative diseases” (priority 2017, dated 2023).

The test system of data set [1] is downbeat nystagmus patients. As to the kind of experiment: Case studies, downbeat nystagmus patients. Type of data set: in vivo, human. The note with it: downbeat nystagmus Patient 1; 10 mg twice daily for four weeks. From the text: The patient was diagnosed with downbeat nystagmus: the patient was severely impaired by blurred vision (oscillopsia) due to the nystagmus, and experienced difficulties while reading and writing. The patient's visual acuity was: right 0.75, left 0.67, binocular 0.83, and the downbeat nystagmus was documented by video-oculography. […] The patient could partially suppress the nystagmus by visual fixation, as evaluated using a target center (dot presented in the center of a display for 30 seconds, FIG. 13A) and in complete darkness using goggles covered with special glasses for 45 seconds (FIG. 13B). The results (median of slow phase velocity, SPV) were as follows: Target Center-horizontal: −0.02°/s, vertical: 2.41°/s; Complete Darkness-horizontal: 0.05°/s, vertical: 3.27°/s (FIG. 13C).

Data set [2] concerns downbeat nystagmus patients. Put plainly: Case studies, downbeat nystagmus patients. Particulars: downbeat nystagmus Patient 2. The class given is in vivo, human.
The test system of data set [3] is MSA-P patients. As to the kind of experiment: Case studies, multiple system atrophy Parkinson type (MSA-P) patients. Type of data set: in vivo, human. Particulars: MSA-P Patient 3. The source says: Medication was stopped. […] The patient evaluated after one month on acetyl-DL-leucine. […] Episodes of mental confusion completely disappeared. The patient's cognitive structure seemed much clearer and straighter. […] The patient's spouse supported continuing the medication.

In data set [4] the test system is MSA-P patients. The data set is described as above. The class given is in vivo, human. Particulars: MSA-P Patient 1; 100/25 mg 3×daily.
Data set [5] concerns frontotemporal dementia with parkinsonism patient. As to the kind of experiment: Case study, frontotemporal dementia with parkinsonism. Type of data set: in vivo, human. The note with it: frontotemporal dementia with parkinsonism patient; treatment with L-Dopa and Ropinirol. From the text:
After approximately one month of acetyl-leucine treatment, medication was stopped and the patient was re-examined 13 days later.

In data set [6] the test system is corticobasal syndrome patient. As to the kind of experiment: Case study, corticobasal syndrome. The class given is in vivo, human. On the procedure: Gait analysis was performed before treatment commenced.
Data set [7] deals with progressive supranuclear palsy patients. As to the kind of experiment: Case studies, progressive supranuclear palsy patients. Type of data set: in vivo, human. The protocol:
After 27 days of acetyl-leucine treatment, medication was stopped and the patient was re-examined 60 days later. […] Gait analysis was performed before treatment commenced. […] Gait analysis was performed before treatment commenced. After 17 days of treatment, medication was stopped and the patient was re-examined 4 days later. […] Gait analysis was performed before treatment commenced. After three weeks of treatment, medication was stopped and the patient was re-examined.

Data set [8] concerns Lewy Body dementia patient. Put plainly: Case study, Lewy Body dementia. The note with it: Levodopa 100 mg 4× daily and Quetiapin 25 mg at night. The class given is in vivo, human. The protocol:
The patient started taking acetyl-leucine (3 g/day for one week; 5 g/day thereafter) and was evaluated after four weeks. […] Medication was reduced to 3 g/day, and the patient was instructed to stop medication about two weeks later.

Data set [9] has as its system restless leg syndrome patients. As to the kind of experiment: Case studies, restless legs syndrome (IRLS score). The class given is in vivo, human. The source says:
A widely reported rating scale known as the International Restless Leg Syndrome Study Group Rating Scale (“IRLS”) was developed by the International Restless Legs Syndrome Study Group (“IRLSSG”) (http://www.irlssg.org/) (Walters et al., Validation of the International Restless Legs Syndrome Study Group rating scale for restless legs syndrome. Sleep medicine. 2003 Apr. 1; 4(2):121-32). The IRLS is a 10-item scale with scores ranging from 0 (no symptoms) to 40. Scores >30 are considered very severe, severe (Score 21-30), moderate (scores 11-20) and ≤10, mild. Use of the scale is common for clinical assessment, research and therapeutic trials with RLS. In one embodiment, treatment with leucine, acetyl-leucine, or a pharmaceutically acceptable salt thereof as described herein decreases the subject's International Restless Leg Syndrome Study Group Rating Scale (“IRLS”) compared to a baseline. In one embodiment, the IRLS is reduced compared to baseline by at least 10%, at least 20%, at least 30%, at least 40%, or at least 50%. In one embodiment, the IRLS is reduced by at least 60%, at least 70%, at least 80%, at least 90%, or 100%.
The patient in this case study was a person showing proximal weakness of the so lower limb. […] Upon consultation, they reported no sensory symptoms but complained of a restless leg syndrome at night and during resting periods of the day, occurring over the course of the last two years. Pre-treatment with dopamine agonist were without symptom relief. Serum creatine kinase activity was only mildly elevated at up to 400 IU/L. The patient was evaluated using the RLS diagnostic index (RLS-DI) (see Walters et al., Sleep Med 2003; 4(2):121-132;). The patient's International Restless Legs Syndrome Rating Scale score (IRLS) was 36, and thus a severe RLS was diagnosed. […] Re-introduction of the treatment re-declined the score to 8 after 2 weeks. Continuation of treatment over more than 22 weeks stabilized the IRLS score at 8.
The patient in this case study was a person showing proximal weakness of the lower limb. […] Upon consultation, they reported no sensory symptoms but complained of a restless leg syndrome at night and during resting periods of the day, occurring over the course of the last eight years. […] Serum creatine kinase activity was mildly elevated at 300 IU/L. Iron measurements and all additional lab investigations were normal. The patient was evaluated using the RLS-DI and the patient's IRLS was 32, and thus a moderate to severe RLS was diagnosed. […] Continuation of treatment over more than 28 weeks stabilized the IRLS score at 8.
The patient in this case study was a person showing mild proximal weakness of the upper and lower limbs slowly progressive. The patient had been diagnosed (genetically confirmed) with McArdle myopathy about 16 years ago. Upon consultation, they reported no sensory symptoms but complained about a severe fatigue and reduced stamina. The patient further reported a restless leg syndrome at night and during resting periods of the day, occurring over the course of the last 12 years. […] Serum creatine kinase activity was mildly elevated at 200 IU/L; however, the patient had 5 episodes of rhabdomyolysis during the past 20 years. Repeated iron measurements and all additional lab investigations were normal. The patient was evaluated using the RLS-DI and the patient's IRLS was 34, and thus a severe RLS was diagnosed. […] Continuation of treatment over more than 30 weeks stabilized the IRLS score at 10. In addition, the patient's fatigue declined (Fatigue Severit Scale: 9 (minimum) to 63 (maximum)) from 53 to 28.

In data set [10] the test system is ALS patients. As to the kind of experiment: Case studies, amyotrophic lateral sclerosis (ALS) patients. Type of data set: in vivo, human. The note with it: ALS Patient 1; medication started around the time of ALS diagnosis. The source says:
The results were documented by video.

The test system of data set [11] is NPC Chinese Hamster Ovary (CHO) cells. Put plainly: Relative lysosomal volume via LysoTracker, NPC CHO cells. The class given is cell-based. The note with it: 1 mM, 72 hours, p<0.01 versus untreated NPC1-null. The source says: Relative lysosomal volume was quantified via LysoTracker.
Data set [12] concerns rat model of an acute unilateral labyrinthectomy. The note with it: Zwergal et al. (2016); Gunther et al. (2015); cited from earlier work.

Consider `Nc1ccncc1` [4-aminopyridine, reference compound], for which the values for the Clinical response entry in data set [1] and in data set [2] were “did not give rise to any benefit” and “did not benefit”, respectively.

Regarding `N[C@@H](Cc1ccc(O)c(O)c1)C(=O)O` [L-Dopa, reference compound], the Tolerability entry in data set [3] is “suspended due to side effects”. The Clinical response entry in data set [4] was “discreet Levodopa response”; in data set [5] it was “little improvement”; in [6] it was “no improvement”; in data set [7] (PSP Patient 1), “little improvement”; in data set [7] (PSP Patient 2) it was “no levodopa response”; in data set [7] (PSP Patient 3), “no levodopa response”. Further, the Clinical response result in data set [7] (PSP Patient 4) is given as “slight levodopa response”; in [8], “improved the symptomatology”. Besides, the “Symptom relief (pre-treatment)” value in [9] (RLS Patient 2) and in data set [9] (RLS Patient 3) was “without sustained symptom relief” each time.

`Nc1nc2ccc(OC(F)(F)F)cc2s1` [Riluzol, reference compound]: the Clinical symptomatology entry in [10] is given as “clinical symptomatology remained unchanged”.

Consider `CC(C)C[C@H](N)C(=O)O` [L-leucine], for which the “Lysosomal volume (LysoTracker)” value in data set [11] is reported as “significantly reduced lysosomal volume”.

In the case of `CCCN(CCC)CCc1cccc2c1CC(=O)N2` [Ropinirol, reference compound], the Clinical response result in [5] is “little improvement”.

For the compound `CC(=O)N[C@H](CC(C)C)C(=O)O` [acetyl-D-leucine], the “Lysosomal volume (LysoTracker)” value in [11] is on record as “significantly reduced lysosomal volume”.

For the compound `OCCOCCN1CCN(C2=Nc3ccccc3Sc3ccccc32)CC1` [Quetiapin, reference compound], the Clinical response entry in [8] is “improved the symptomatology”.

On to `CC(C)C[C@@H](N)C(=O)O` [D-leucine], for which, in data set [11], the “Lysosomal volume (LysoTracker)” value was “significantly reduced lysosomal volume”.

`CC(=O)N[C@@H](CC(C)C)C(=O)O` [acetyl-L-leucine]: in data set [11], the “Lysosomal volume (LysoTracker)” value was “significantly reduced lysosomal volume”. Moreover, the “Effect on postural compensation” value in [12] is listed as “significant effect”.

On to `CC(C)C[C@H](CN)CC(=O)O` [pregabaline, reference compound], for which the “Symptom relief (pre-treatment)” value in data set [9] (RLS Patient 2) and in [9] (RLS Patient 3) was “without sustained symptom relief” throughout.

Take `CC(C)CC(N)C(=O)O` (racemic) [DL-leucine]: in data set [11], the “Lysosomal volume (LysoTracker)” value is on record as “significantly reduced lysosomal volume”.
